pIC50: −log10 of the molar value.
Columns and labels:
DU-145 = assay: Cytotoxicity against human DU-145 cells assessed as reduction in cell viability measured after 72 hrs by SRB assay; type: functional, cell-based; details: DU-145, 72 h
HCT-116 = assay: Cytotoxicity against human HCT-116 cells assessed as reduction in cell viability measured after 72 hrs by SRB assay; type: functional, cell-based; details: HCT-116, 72 h
PANC-1 [1] = assay: Cytotoxicity against human PANC-1 cells assessed as reduction in cell viability measured after 72 hrs by SRB assay; type: functional, cell-based; details: PANC-1, 72 h
MIA PaCa-2 [2] = assay: Cytotoxicity against human MIA PaCa-2 cells assessed as reduction in cell viability measured after 72 hrs by SRB assay; type: functional, cell-based; details: MIA PaCa-2, 72 h
BXPC-3 [3] = assay: Cytotoxicity against human BXPC-3 cells assessed as reduction in cell viability measured after 72 hrs by SRB assay; type: functional, cell-based; details: BXPC-3, 72 h
ASPC1 [4] = assay: Cytotoxicity against human ASPC1 cells assessed as reduction in cell viability measured after 72 hrs by SRB assay; type: functional, cell-based; details: ASPC1, 72 h
PANC-1 [5] = assay: Antitumour activity against human PANC-1 cells xenografted in Crl:Nu-Foxnl nu mouse assessed as inhibition of tumour growth at total effective dose of 16 mg/kg, iv measured on day 40; type: functional; details: PANC-1, iv, 960 h, time 40 day, read-out: TGI
PANC-1 [6] = assay: Antitumour activity against human PANC-1 cells xenografted in Crl:Nu-Foxnl nu mouse assessed as inhibition of tumour growth at total effective dose of 120 mg/kg, iv measured on day 37; type: functional; details: PANC-1, iv, 888 h, time 37 day, read-out: TGI
PANC-1 [7] = assay: Antitumour activity against human PANC-1 cells xenografted in Crl:Nu-Foxnl nu mouse assessed as inhibition of tumour growth at total effective dose of 160 mg/kg, iv measured on day 56; type: functional; details: PANC-1, iv, 1344 h, time 56 day, read-out: TGI
MCF7 = assay: Cytotoxicity against human MCF7 cells assessed as reduction in cell viability measured after 72 hrs by SRB assay; type: functional, cell-based; details: MCF7, 72 h
MDA-MB-231 = assay: Cytotoxicity against human MDA-MB-231 cells assessed as reduction in cell viability measured after 72 hrs by SRB assay; type: functional, cell-based; details: MDA-MB-231, 72 h
Capan-2 = assay: Cytotoxicity against human Capan-2 cells assessed as reduction in cell viability measured after 72 hrs by SRB assay; type: functional, cell-based; details: Capan-2, 72 h
PANC-1 [8] = assay: Antitumour activity against human PANC-1 cells xenografted in Crl:Nu-Foxnl nu mouse assessed as inhibition of tumour growth at total effective dose of 16 mg/kg, iv measured on day 38; type: functional; details: PANC-1, iv, 912 h, time 38 day, read-out: TGI
PANC-1 [9] = assay: Antitumour activity against human PANC-1 cells xenografted in Crl:Nu-Foxnl nu mouse assessed as inhibition of tumour growth at total effective dose of 16 mg/kg, iv measured on day 60; type: functional; details: PANC-1, iv, 1440 h, time 60 day, read-out: TGI
Quadruplex DNA [10] = assay: Stabilization of 5'-FAM/3'-TAMRA labeled c-Myc promoter G4 quadruplex DNA FPu18 (unknown origin) assessed as change in melting temperature at 10 microM measured after 15 mins by FRET assay; type: nucleic-acid assay
Quadruplex DNA [11] = assay: Stabilization of 5'-FAM/3'-TAMRA labeled telomeric G4 quadruplex DNA F21T (unknown origin) assessed as change in melting temperature at 10 microM measured after 15 mins by FRET assay; type: nucleic-acid assay
Quadruplex DNA [12] = assay: Stabilization of 5'-FAM/3'-TAMRA labeled K-Ras G4 quadruplex DNA (unknown origin) assessed as change in melting temperature at 10 microM measured after 15 mins by FRET assay; type: nucleic-acid assay
[13] = Stabilization of ds 5'-FAM-d(TATAGCTATA-HEG-TATAGCTATA)-TAMRA-3' (unknown origin) assessed as change in melting temperature at 10 microM measured after 15 mins by FRET assay; details: Homo sapiens
ASPC1 [14] = assay: Antitumour activity against human ASPC1 cells xenografted in Crl:Nu-Foxnl nu mouse assessed as inhibition of tumour growth at total effective dose of 48 mg/kg, iv measured on day 36; type: functional; details: 864 h, time 36 day, read-out: TGI
PANC-1 [15] = assay: Antitumour activity against human PANC-1 cells xenografted in Crl:Nu-Foxnl nu mouse assessed as inhibition of tumour growth at total effective dose of 16 mg/kg, iv measured on day 47; type: functional; details: PANC-1, iv, 1128 h, time 47 day, read-out: TGI
PANC-1 [16] = assay: Antitumour activity against human PANC-1 cells xenografted in Crl:Nu-Foxnl nu mouse assessed as inhibition of tumour growth at total effective dose of 160 mg/kg, iv measured on day 50; type: functional; details: PANC-1, iv, 1200 h, time 50 day, read-out: TGI
BXPC-3 [17] = assay: Antitumour activity against human BXPC-3 cells xenografted in Crl:Nu-Foxnl nu mouse assessed as inhibition of tumour growth at total effective dose of 40 mg/kg, iv measured on day 34; type: functional; details: BXPC-3, iv, 816 h, time 34 day, read-out: TGI
PC-3 = assay: Cytotoxicity against human PC-3 cells assessed as reduction in cell viability measured after 72 hrs by SRB assay; type: functional, cell-based; details: PC-3, 72 h
HT-29 = assay: Cytotoxicity against human HT-29 cells assessed as reduction in cell viability measured after 72 hrs by SRB assay; type: functional, cell-based; details: HT-29, 72 h
NCI-H460 = assay: Cytotoxicity against human NCI-H460 cells assessed as reduction in cell viability measured after 72 hrs by SRB assay; type: functional, cell-based; details: NCI-H460, 72 h
UMUC3 [18] = assay: Cytotoxicity against human UMUC3 cells assessed as reduction in cell viability measured after 72 hrs by SRB assay; type: functional, cell-based; details: UMUC3, 72 h
PANC-1 [19] = assay: Antitumour activity against human PANC-1 cells xenografted in Crl:Nu-Foxnl nu mouse assessed as inhibition of tumour growth at total effective dose of 8 mg/kg, iv measured on day 32; type: functional; details: PANC-1, iv, 768 h, time 32 day, read-out: TGI
MIA PaCa-2 [20] = assay: Antitumour activity against human MIA PaCa-2 cells xenografted in Crl:Nu-Foxnl nu mouse assessed as inhibition of tumour growth at total effective dose of 16 mg/kg, iv measured on day 26; type: functional; details: MIA PaCa-2, iv, 624 h, time 26 day, read-out: TGI
UMUC3 [21] = assay: Antitumour activity against human UMUC3 cells xenografted in Crl:Nu-Foxnl nu mouse assessed as inhibition of tumour growth at total effective dose of 28 mg/kg, iv measured on day 23; type: functional; details: 552 h, time 23 day, read-out: TGI
PANC-1 [22] = assay: Antitumour activity against human PANC-1 cells xenografted in Crl:Nu-Foxnl nu mouse assessed as inhibition of tumour growth at total effective dose of 10 mg/kg, iv measured on day 31; type: functional; details: PANC-1, iv, 744 h, time 31 day, read-out: TGI
PANC-1 [23] = assay: Antitumour activity against human PANC-1 cells xenografted in Crl:Nu-Foxnl nu mouse assessed as inhibition of tumour growth at total effective dose of 36 mg/kg, iv measured on day 45; type: functional; details: PANC-1, iv, 1080 h, time 45 day, read-out: TGI
PANC-1 [24] = assay: Antitumour activity against human PANC-1 cells xenografted in Crl:Nu-Foxnl nu mouse assessed as inhibition of tumour growth at total effective dose of 20 mg/kg, iv measured on day 36; type: functional; details: PANC-1, iv, 864 h, time 36 day, read-out: TGI
MIA PaCa-2 [25] = assay: Antitumour activity against human MIA PaCa-2 cells xenografted in Crl:Nu-Foxnl nu mouse assessed as inhibition of tumour growth at total effective dose of 42 mg/kg, iv measured on day 26; type: functional; details: MIA PaCa-2, iv, 624 h, time 26 day, read-out: TGI
MIA PaCa-2 [26] = assay: Antitumour activity against human MIA PaCa-2 cells xenografted in Crl:Nu-Foxnl nu mouse assessed as inhibition of tumour growth at total effective dose of 8 mg/kg, ip measured on day 15; type: functional; details: MIA PaCa-2, ip, 360 h, time 15 day, read-out: TGI
BXPC-3 [27] = assay: Antitumour activity against human BXPC-3 cells xenografted in Crl:Nu-Foxnl nu mouse assessed as inhibition of tumour growth at total effective dose of 30 mg/kg, iv measured on day 37; type: functional; details: BXPC-3, iv, 888 h, time 37 day, read-out: TGI

Row | Structure (SMILES) | pIC50 (DU-145) | pIC50 (HCT-116) | pIC50 (PANC-1 [1]) | pIC50 (MIA PaCa-2 [2]) | pIC50 (BXPC-3 [3]) | pIC50 (ASPC1 [4]) | inhibition in vivo at 16 mg/kg (PANC-1 [5]) [%] | pIC50 (MCF7) | pIC50 (MDA-MB-231) | pIC50 (Capan-2) | ΔTm (Quadruplex DNA [10]) [°C] | ΔTm (Quadruplex DNA [11]) [°C] | ΔTm (Quadruplex DNA [12]) [°C] | ΔTm [13] [°C] | other results
1 | Cc1nc2ccc(NCCCN3CCN(CCC(N)c4ccc5nc6ccccc6cc5c4[N+](=O)[O-])CC3)c3c(=O)c4cc(O)ccc4n1c23 (configuration not stated) | 7.62 | 7.57 | 7.41 | 7.74 | 6.82 | 6.82 | 68 | – | – | – | – | – | – | – | inhibition in vivo at 120 mg/kg (PANC-1 [6]): 64%; inhibition in vivo at 160 mg/kg (PANC-1 [7]): 69%
2 | O=c1c2ccccc2n2cnc3ccc(NCCNc4c5ccccc5nc5cccc([N+](=O)[O-])c45)c1c32 | 7.40 | 6.99 | 7.43 | 7.19 | 6.86 | 7.07 | – | 7.09 | 7.57 | 7.36 | 19.3 | 31.6 | 19.5 | 10.4 | inhibition in vivo at 16 mg/kg (PANC-1 [8]): 60%; inhibition in vivo at 16 mg/kg (PANC-1 [9]): 76%
3 | COc1ccc2c(c1)c(=O)c1c(NCCCN3CCN(CCC(N)c4ccc5nc6ccccc6cc5c4[N+](=O)[O-])CC3)ccc3ncn2c31 (configuration not stated) | 7.68 | 7.55 | 7.40 | 7.44 | 7.12 | 6.91 | – | – | 7.42 | 7.57 | 32.8 | 33.3 | 28.3 | 4.6 | inhibition in vivo at 48 mg/kg (ASPC1 [14]): 32%; inhibition in vivo at 16 mg/kg (PANC-1 [15]): 80%; inhibition in vivo at 160 mg/kg (PANC-1 [16]): 64%; inhibition in vivo at 40 mg/kg (BXPC-3 [17]): 63%
4 | O=c1c2cc(O)ccc2n2cnc3ccc(NCCCN4CCN(CCCNc5c6ccccc6nc6cccc([N+](=O)[O-])c56)CC4)c1c32 | 7.70 | 7.70 | 7.62 | 7.68 | 6.79 | 6.72 | 82 | 7.21 | 7.72 | 7.37 | 28.5 | 9.2 | 22.3 | 3.8 | pIC50 (PC-3): 7.46; pIC50 (HT-29): 7.09; pIC50 (NCI-H460): 7.77; pIC50 (UMUC3 [18]): 7.74; inhibition in vivo at 8 mg/kg (PANC-1 [19]): 51%; inhibition in vivo at 16 mg/kg (MIA PaCa-2 [20]): 29%; inhibition in vivo at 28 mg/kg (UMUC3 [21]): 47%; inhibition in vivo at 10 mg/kg (PANC-1 [22]): 71%; inhibition in vivo at 36 mg/kg (PANC-1 [23]): 90%; inhibition in vivo at 20 mg/kg (PANC-1 [24]): 59%; inhibition in vivo at 42 mg/kg (MIA PaCa-2 [25]): 50%; inhibition in vivo at 8 mg/kg (MIA PaCa-2 [26]): 51%; inhibition in vivo at 30 mg/kg (BXPC-3 [27]): 64%

From ChEMBL document CHEMBL4765407, “Design, synthesis and high antitumor potential of new unsymmetrical bisacridine derivatives towards human solid tumors, specifically pancreatic cancers and their unique ability to stabilize DNA G-quadruplexes” (Eur J Med Chem, 2020)
